# From US20180064681A1, “THERAPEUTIC COMBINATIONS OF CURCUMINOIDS AND FLAVONOIDS” (Primus Pharmaceuticals, Inc., priority 2015, published 2018)
# Assays:
# NF-κB p65 mRNA = assay: NF-κB (p65) mRNA expression in LPS-stimulated human articular chondrocytes (real-time PCR); assay type: cell-based; conditions: LPS 2 μg/ml, 4 hours
# Description: (§1) Human articular chondrocytes were cultured in six well culture Petri dishes at a density of 2.5×10^5 cells/well, in a specific chondrocyte growth medium supplemented with 1% antibiotic—antimycotic mixture, at 37° C. in 5% CO2 humidified incubator. The medium was renewed every 2 days. […] Finally, the cells and medium underwent molecular evaluation 4 hours after the treatments.
# (§2) Total RNA was isolated from human chondrocytes for reverse-PCR real time evaluation of IL-1beta, COX2, MMP1, MMP-3, MMP9, MMP13, NF-kB (p50), NF-kB (p65), IL-13 and 5-LOX mRNA (Real Time PCR system, mod 7500, Applied Biosystems, Carlsbad, Calif.) using Trizol Reagent Kit (Life Technologies, Monza, Italy). The first strand of cDNA was synthesized from 5.0 μg total RNA using a high capacity cDNA Archive kit (Applied Biosystems, Carlsbad, Calif.). β-actin mRNA was used as an endogenous control to allow the relative quantification. […] The amplified PCR products were quantified by measuring the calculated cycle thresholds (CT) of IL-1beta, COX2, MMP1, MMP-3, MMP9, MMP13, NF-kB (p50), NF-kB (p65), IL-13 and 5-LOX and β-Actin mRNA. The amounts of specific mRNA in samples were calculated using the 2^ΔΔCT method. The mean value of normal chondrocytes target levels became the calibrator and the results are expressed as the n-fold difference relative to normal controls (relative expression levels). […]
# IL-1β mRNA [1] = assay: IL-1β mRNA expression in LPS-stimulated human articular chondrocytes (real-time PCR); assay type: cell-based; conditions: LPS 2 μg/ml, 4 hours
# Description: as §1, §2
# MMP-1 mRNA = MMP-1 mRNA expression in LPS-stimulated human articular chondrocytes (real-time PCR); assay type: cell-based; conditions: LPS 2 μg/ml, 4 hours
# Description: as §1, §2
# MMP-3 mRNA = MMP-3 mRNA expression in LPS-stimulated human articular chondrocytes (real-time PCR); assay type: cell-based; conditions: LPS 2 μg/ml, 4 hours
# Description: as §1, §2
# COX-2 mRNA = assay type: cell-based, human
# Description: as §1, §2
# 5-LOX mRNA = 5-LOX mRNA expression in LPS-stimulated human articular chondrocytes (real-time PCR); assay type: cell-based; conditions: LPS 2 μg/ml, 4 hours; curcumin 10 μg/ml
# Description: as §1, §2
# IL-13 mRNA = IL-13 mRNA expression in LPS-stimulated human articular chondrocytes (real-time PCR); assay type: cell-based; conditions: LPS 2 μg/ml, 4 hours; curcumin alone 5 or 10 μg/ml
# Description: as §1, §2
# IL-1β mRNA [2] = assay: Median effect / combination index analysis (Chou and Talalay) of reduction of IL-1β mRNA levels in chondrocytes; assay type: cell-based; conditions: Homo sapiens, Chondrocyte, read-out: IC50 (Dm) for reduction of IL-1β mRNA levels
# Description: We then plotted the dose-response curve (FIG. 21) as log (fa/fu) with respect to log (D) to generate the Median Effect Plot (FIG. 22).
# The CI was calculated as:
compound,measurement,setting,value
COc1cc(/C=C/C(=O)CC(=O)/C=C/c2ccc(O)c(OC)c2)ccc1O [curcumin],NF-κB p65 mRNA expression,NF-κB p65 mRNA; curcumin 5 μg/ml,failed to result in any change
same,NF-κB p65 mRNA expression,NF-κB p65 mRNA; curcumin 10 μg/ml alone,more pronounced decrease
same,IL-1β mRNA expression,IL-1β mRNA [1]; curcumin 5 μg/ml,significantly blunted
same,IL-1β mRNA expression,IL-1β mRNA [1]; curcumin 10 μg/ml alone,further decreased
same,MMP-1 mRNA expression,MMP-1 mRNA; curcumin 5 μg/ml alone,significantly reduced
same,MMP-1 mRNA expression,MMP-1 mRNA; curcumin 10 μg/ml,additional decrease in a concentration-dependent manner
same,MMP-3 mRNA expression,MMP-3 mRNA; curcumin 5 μg/ml alone,significantly reduced
same,MMP-3 mRNA expression,MMP-3 mRNA; curcumin 10 μg/ml,additional decrease in a concentration-dependent manner
same,COX-2 mRNA expression,COX-2 mRNA,significantly reduced
same,5-LOX mRNA expression,5-LOX mRNA,blunted
same,IL-13 mRNA expression,IL-13 mRNA,significantly increased in a dose dependent manner
same,IC50,IL-1β mRNA [2],14.3 µM
